In ChEMBL document CHEMBL1255199, “Endochin optimization: structure-activity and structure-property relationship studies of 3-substituted 2-methyl-4(1H)-quinolones with antimalarial activity” (J Med Chem, 2010):
≈ marks a conversion by molar mass, not a printed value.

Key:
[1] = Passive transcellular permeability of the compound at pH 4 by PAMPA; assay type: ADME; conditions: for Papp: read-out: permeability
Plasmodium falciparum [2] = assay: Antimalarial activity against chloroquine and pyrimethamine-resistant Plasmodium falciparum W2 infected in human A+ erythrocytes after 72 hrs by SYBR Green I assay; assay type: functional, organism-based; conditions: W2, 72 h
in vitro = conditions: mouse, J774 cells
Description: Cytotoxicity index, ratio of EC50 for mice (Mus musculus) J774 cells to EC50 for chloroquine, mefloquine, pyrimethamine and atovaquone-resistant Plasmodium falciparum TM90-C2B

[3] = Passive transcellular permeability of the compound at pH 7.4 by PAMPA; assay type: ADME; conditions: read-out: permeability
Plasmodium falciparum [4] = assay: Antimalarial activity against chloroquine, mefloquine, pyrimethamine and atovaquone-resistant Plasmodium falciparum TM90-C2B infected in human A+ erythrocytes after 72 hrs by SYBR Green I assay; assay type: functional, organism-based
J774 = assay: Cytotoxicity against mouse J774 cells; assay type: cell-based
[5] = Lipophilicity, log D of the compound at pH 7.4; conditions: buffer
physchem = conditions: aqueous, pH 7.4
Description: Aqueous solubility of the compound at pH 7.4 by HPLC analysis

Structure (SMILES)	Papp [1] [×10⁻⁶ cm/s]	EC50 (Plasmodium falciparum [2]) [µM]	selectivity ratio (in vitro)	Papp [3] [×10⁻⁶ cm/s]	EC50 (Plasmodium falciparum [4]) [µM]	EC50 (J774) [µM]	logD [5]	solubility (physchem) [µM]	permeability [1] [×10⁻⁶ cm/s]
Cc1[nH]c2ccc(Cl)cc2c(=O)c1-c1ccccc1	111	0.244	> 47.7	108	0.777	> 37.1	2.43	5 (≈ 1.35 µg/mL)	–
Cc1[nH]c2ccccc2c(=O)c1/C=C/c1cccc([N+](=O)[O-])c1	508	4.6	> 21.9	602	1.49	> 32.6	2.95	< 2	–
Cc1[nH]c2c(Cl)cccc2c(=O)c1-c1ccccc1	158	> 9.27	> 4	165	> 9.27	> 37.1	2.6	5 (≈ 1.35 µg/mL)	–
Cc1[nH]c2ccccc2c(=O)c1C1CCCCC1	260	0.591	> 18.6	230	2.23	> 41.4	2.45	10 (≈ 2.41 µg/mL)	–
COc1ccc2[nH]c(C)c(Cc3ccccc3)c(=O)c2c1	167	> 8.95	> 1	188	23.7	> 23.7	2.53	2 (≈ 0.559 µg/mL)	–
Cc1[nH]c2ccccc2c(=O)c1Br	8.19	0.453	> 542	13.6	0.0776	> 42	1.67	> 20	–
COc1cccc2[nH]c(C)c(Cc3ccccc3)c(=O)c12	69.8	6.44	5.33	158	2.11	11.2	2.11	> 20	–
Cc1[nH]c2ccc(Br)cc2c(=O)c1Br	133	1.4	> 92.9	95.2	0.339	> 31.5	1.76	> 20	–
COc1ccc2c(=O)c(Cc3ccccc3)c(C)[nH]c2c1	200	0.733	> 25.9	240	1.38	> 35.8	2.52	5 (≈ 1.4 µg/mL)	–
COc1cccc2[nH]c(C)c(-c3ccccc3)c(=O)c12	24.4	8.15	> 7.4	333	5.08	> 37.7	1.63	> 20	–
Cc1[nH]c2cc(Cl)cc(Cl)c2c(=O)c1-c1ccccc1	460	2.15	> 9.5	320	3.44	> 32.9	2.72	5 (≈ 1.52 µg/mL)	–
COc1cc2[nH]c(C)c(C3CCCCC3)c(=O)c2cc1Cl	–	0.237	> 82.3	630	0.397	> 32.7	3.04	5 (≈ 1.53 µg/mL)	1235.85
Cc1[nH]c2ccccc2c(=O)c1-c1ccccc1	16.6	0.711	> 79.1	33	0.538	> 42.5	2.02	> 20	–
CCCCCCCc1c(C)[nH]c2cc(OC)c(Cl)cc2c1=O	< 0.01	0.0123	> 10500	< 0.01	0.00295	> 37.1	< 3.83	< 2	–
Cc1[nH]c2ccccc2c(=O)c1/C=C/C(=O)OC(C)(C)C	105	> 8.35	> 4.8	124	> 8.35	> 40	2.34	> 20	–
COc1cc2[nH]c(C)c(C(C)C)c(=O)c2cc1Cl	281	0.112	112	187	0.194	21.7	2.84	> 20	–
Cc1[nH]c2c(Cl)cc(Cl)cc2c(=O)c1-c1ccccc1	162	> 8.22	> 4	232	> 8.22	> 32.9	3.32	< 2	–
Cc1[nH]c2cccc(Cl)c2c(=O)c1-c1ccccc1	91	5.06	> 7.8	99.6	4.74	> 37.1	1.88	10 (≈ 2.7 µg/mL)	–
CCc1c(C)[nH]c2cc(OC)c(F)cc2c1=O	–	0.368	58.3	19.1	0.161	9.4	1.2	< 2	22.9
Cc1[nH]c2ccc(Cl)cc2c(=O)c1Cc1ccccc1	422	2.47	> 10.7	415	3.28	> 35.2	2.79	< 2	–
Cc1[nH]c2cccc(Cl)c2c(=O)c1Cc1ccccc1	244	0.63	> 6.7	251	5.26	> 35.2	2.65	2 (≈ 0.568 µg/mL)	–
Cc1[nH]c2ccc(Cl)cc2c(=O)c1Br	84.5	0.845	172	87.7	0.126	21.7	2.02	5 (≈ 1.36 µg/mL)	–
Cc1[nH]c2ccc(Cl)c(Cl)c2c(=O)c1-c1ccccc1	285	0.659	> 10.2	192	3.21	> 32.9	2.83	< 2	–
Cc1[nH]c2c(Cl)cccc2c(=O)c1Cc1ccccc1	430	> 8.81	> 4	412	> 8.81	> 35.2	2.78	5 (≈ 1.42 µg/mL)	–
Cc1[nH]c2ccccc2c(=O)c1/C=C/c1ccc(O)cc1	10.7	> 9.01	> 4	17	> 9.02	> 36.1	1.77	> 20	–
COc1cccc2c(=O)c(Cc3ccccc3)c(C)[nH]c12	164	> 2.24	> 6.5	125	> 5.45	> 35.8	2.24	> 20	–
COc1cc2[nH]c(C)c(C)c(=O)c2cc1Cl	37	0.0566	449	59.2	0.0273	12.2	1.86	5 (≈ 1.19 µg/mL)	–
